Assay results taken from US10166229B2, “Compounds and methods for the treatment of cancer” (The Board of Trustees of the University of Illinois, priority 2005, dated 2019).
“Also recorded” adds a separate entry of the source.

What was measured:
[1] = tested on: white blood cells derived from the bone marrow of a healthy human donor; test: Cell death in normal white blood cells; type: cell-based; conditions: relative to cancer cell lines
procaspase-3 mutant ADD = test: Activation of safety catch mutant procaspase-3 (ADD); type: biochemical, Homo sapiens
Text: (§1) Safety catch mutations. The DDD procaspase-3 safety catch (SEQ ID NO:1; SEQ ID NO:2; SEQ ID NO:9) was mutated to ADD (SEQ ID NO:3, SEQ ID NO:4, SEQ ID NO:10), DAD (SEQ ID NO:5, SEQ ID NO:6, SEQ ID NO:11) and DDA (SEQ ID NO:7, SEQ ID NO:8, SEQ ID NO:12) using the quickchange strategy with the following primers, gacagacagtggtgttgCGgatgacatggcgtgtcataaaatacc (SEQ ID NO:13), gacagacagtggtgttgatgCtgacatggcgtgtcataaaatacc (SEQ ID NO:14) and gacagacagtggtgttgatgatgCcatggcgtgtcataaaatacc (SEQ ID NO:15) respectively. See also FIG. 9 and FIG. 10. Mutated bases are underlined and capitalized. All mutant plasmids were sequenced to ensure proper sequence throughout the gene. All mutant plasm ids were expressed exactly as wild-type procaspase-3 as described above. […] The plate was then incubated for 12 hours at 37° C. 10 μL of a 2 mM solution of Ac-DEVD-pNA (SEQ ID NO: 28) in caspase assay buffer was then added to each well. The plate was read every 2 minutes at 405 nm for 2 hours in a Spectra Max Plus 384 well plate reader. The slope of the linear portion for each well was determined and the fold increase in activity for each mutant was calculated.

HL-60 cells [2] = test: Apoptosis induction assay in HL-60 cells, 72 hrs (Table 6); type: cell-based; conditions: Homo sapiens
Experimental: Compounds DX1-DX17 were tested using the HL-60 cell line for the ability to effect apoptosis, and IC50 values were determined. Activity levels of compounds from assays of 72 hrs duration with HL-60 cells are shown in Table 6 and along with structures in FIG. 12.

procaspase-3 mutant DDA = procaspase-3 mutant DDA (Homo sapiens, UniProt P42574, D181A); test: Activation of safety catch mutant procaspase-3 (DDA); type: biochemical
Text: as §1

HL-60 cells [3] = test: Cell death inhibition by z-vad-fmk; type: cell-based, human
Experimental: Cell death inhibition by z-vad-fmk. 100 μL HL-60 cells at a concentration of 5×10^5 cells/mL were added to the wells of a 96-well plate. The cells were then incubated for 1 hour in the presence or absence of 100 μM z-vad-fmk, a cell-permeable pan caspase inhibitor. […] The plates were incubated at 37° C. for approximately 45 minutes until the colored product formed.

procaspase-3 mutant DAD = procaspase-3 mutant DAD (Homo sapiens, UniProt P42574, D180A); test: Activation of safety catch mutant procaspase-3 (DAD); type: biochemical; conditions: Asp-Ala-Asp mutant
Text: as §1

procaspase-3 [4] = target: T1, procaspase-3 (Homo sapiens (Human), UniProt P42574); test: PAC-1 activation gel (Western blot of procaspase-3 cleavage); type: biochemical
Experimental: Procaspase-3 was expressed and isolated exactly as above. Procaspase-3 was diluted to about 50 μg/mL in caspase assay buffer. […] After this incubation, an equal volume of load buffer (150 mM NaCl, 50 mM Tris, 2% SDS, 20% glycerol, pH 8.0) was added to each procaspase-3 sample. All samples were then stored at −80° C. until the time-course was completed. All samples were then incubated at 95° C. for 5 minutes and run on a 12% SDS-PAGE gel. Proteins were then transferred to nitrocellulose paper overnight. Blots were washed in TTBS (150 mM NaCl, 50 mM Tris, 0.1% Tween-20, pH 7.4) and blocked with a 10% milk solution for 2 hours. Blots were then incubated in a 1:5000 dilution of anti-Penta His Alexa Fluor 647 antibody for 2 hours. The blot was then washed with TTBS and scanned on a Typhoon fluorescence scanner (Amersham Biosciences, Sunnyvale Calif.).

HL-60 cells [5] = test: Annexin V staining (phosphatidylserine exposure); type: cell-based, human
Experimental: Cells were harvested by centrifugation and washed twice in PBS. The cells were then washed in AnnexinV binding buffer (10 mM HEPES, 140 mM NaCl, 2.5 mM CaCl2, pH 7.4) and resuspended in 100 μL of Annexin V binding buffer. 5 μL of annexin V, Alexa Fluor 488 conjugate was added and the tubes were incubated at room temperature for 15 minutes protected from light. 400 μL of Annexin V binding buffer was then added, followed by the addition of 1 μL of a 1 mg/mL solution of propidium iodide. The fluorescent intensity of each cell was determined by flow cytometry at 525 nm (green channel) and 675 nm (red channel). At least 50,000 cells were analyzed in each experiment.

procaspase-3 [6] = target: T1, procaspase-3; test: Western blot of in vitro procaspase-3 activation by DX compounds; type: biochemical; conditions: 50 micromolar compound, about 35 nanomolar procaspase-3, 8 hr
Experimental: Certain compounds were also tested for the ability to effect in vitro activation of procaspase-3.

[7] = tested on: ACHN (renal cancer) subcutaneous tumors; test: ACHN xenograft, PAC-1/cholesterol pellet; type: in vivo, mice
HL-60 cells [8] = test: Condensed chromatin staining (Hoechst); type: cell-based, human; conditions: HL-60, 20 h, 100 μM
Experimental: The cells were then washed in PBS buffer followed by the addition of ice-cold 100% ethanol. The cells were fixed overnight at 4° C. Fixed cells were incubated with 2 μg/mL Hoechst-33258 for 30 minutes at room temperature. A drop of cells was then added to a microscope slide and covered with a No. 1 thickness coverslip.

[9] = tested on: NCI-H226 (lung cancer) xenograft tumors; test: NCI-H226 subcutaneous xenograft, oral gavage; type: in vivo, mice; conditions: oral gavage once a day for 21 days, 50 or 100 mg/kg
active caspase-3 = active caspase-3 (Homo sapiens (Human), UniProt P42574); test: Effect on fully processed caspase-3 enzyme; type: biochemical
Experimental: Activation curves. The dose dependence of procaspase-3 activators was determined by adding various concentrations of compound to 90 μL of a 50 ng/mL procaspase-3, active caspase-3, procaspase-7 or active caspase-7 in caspase assay buffer in a 96-well plate. The plate was then incubated for 12 hours at 37° C. 10 μL of a 2 mM solution of Ac-DEVD-pNA (SEQ ID NO: 28) in caspase assay buffer was then added to each well. The plate was read every 2 minutes at 405 nm for 2 hours in a Spectra Max Plus 384 well plate reader. The slope of the linear portion for each well was determined and the fold increase in activation from non-treated control wells was calculated.

T1 sequence (P42574 whole entry): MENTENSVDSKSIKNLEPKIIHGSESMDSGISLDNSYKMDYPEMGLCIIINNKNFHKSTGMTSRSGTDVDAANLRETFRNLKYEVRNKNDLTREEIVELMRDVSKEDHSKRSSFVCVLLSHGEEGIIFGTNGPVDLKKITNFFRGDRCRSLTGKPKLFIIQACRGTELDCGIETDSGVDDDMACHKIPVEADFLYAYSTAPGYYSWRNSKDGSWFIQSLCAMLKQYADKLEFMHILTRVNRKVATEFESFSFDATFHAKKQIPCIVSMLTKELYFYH
Chain of active caspase-3 (P42574 29-175): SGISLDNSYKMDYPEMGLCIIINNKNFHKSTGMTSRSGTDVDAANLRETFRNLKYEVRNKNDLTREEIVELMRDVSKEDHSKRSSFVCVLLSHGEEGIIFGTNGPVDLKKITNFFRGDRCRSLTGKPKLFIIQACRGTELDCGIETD
Chain of active caspase-3 (P42574 176-277): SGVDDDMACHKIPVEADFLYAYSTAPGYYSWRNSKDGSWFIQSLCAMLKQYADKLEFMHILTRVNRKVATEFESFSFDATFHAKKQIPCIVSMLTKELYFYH
Chain of procaspase-3 mutant DAD (P42574 29-175 limits assumed): as the sequence (P42574 29-175) above
Chain of procaspase-3 mutant DAD (P42574 176-277 D180A limits assumed): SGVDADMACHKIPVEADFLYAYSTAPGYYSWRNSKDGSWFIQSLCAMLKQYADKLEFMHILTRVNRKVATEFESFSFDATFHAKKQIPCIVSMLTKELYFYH
Chain of procaspase-3 mutant DDA (P42574 29-175 limits assumed): as the sequence (P42574 29-175) above
Chain of procaspase-3 mutant DDA (P42574 176-277 D181A limits assumed): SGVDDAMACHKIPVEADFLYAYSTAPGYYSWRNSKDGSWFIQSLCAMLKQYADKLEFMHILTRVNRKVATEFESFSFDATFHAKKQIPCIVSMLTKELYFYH

## C=CCc1cccc(/C=N/NC(=O)CN2CCN(Cc3ccccc3)CC2)c1O [PAC-1]
[1]
  potency/toxicity in normal white blood cells: comparatively less toxic; also recorded: markedly less potent
procaspase-3 mutant ADD
  EC50: 131 µM
HL-60 cells [2]
  IC50: 2800 nM
procaspase-3 mutant DDA
  EC50: 113 µM
HL-60 cells [3]
  toxicity in the presence of caspase inhibitor z-VAD-fmk: abolished
procaspase-3 mutant DAD
  EC50: 2770 nM
procaspase-3 [4]; 5 μM
  effectiveness in procaspase-3 cleavage assay: effective
procaspase-3 [4]; 100 μM PAC-1
  time to cleavage generating the p19 fragment: ≤ 1 h
procaspase-3 [4]; 100 μM PAC-1, after 4 hours
  cleavage (processing) of procaspase-3: > 50%
HL-60 cells [5]; 5 μM
  effectiveness in Annexin-V assay: effective
HL-60 cells [5]; HL-60, 20 h, 100 μM
  phosphatidylserine exposure on the cell membrane: considerable phosphatidylserine exposure
procaspase-3 [6]
  in vitro activation of procaspase-3 (Western blot) relative to control: substantial activity levels
[7]; last week of the experiment, 0, 1, 5 mg pellets
  food consumption: no difference in food consumption
[7]; pellet containing 5 mg of PAC-1, about 8 weeks
  tumor growth, ACHN xenograft: significantly retarded; also recorded: reduces the growth of tumors
HL-60 cells [8]
  chromatin condensation: significant chromatin condensation
[9]
  tumor growth, NCI-H226 xenograft: significantly retards tumor growth in a dose-dependent manner
Active caspase-3
  effect on catalytic activity of fully processed caspase-3 enzyme: no effect
